{"source": "paper PMC12363935", "about": "“Unc-51 Like Kinase 3 (ULK3) is essential for autophagy and cell survival in multiple myeloma” (Research Square, 2025)", "key": {"JAK2": {"biological_target": "T1, JAK2 (Homo sapiens, UniProt O60674)", "T1 construct": "purchased Reaction Biology Corporation", "T1 sequence (O60674 whole entry)": "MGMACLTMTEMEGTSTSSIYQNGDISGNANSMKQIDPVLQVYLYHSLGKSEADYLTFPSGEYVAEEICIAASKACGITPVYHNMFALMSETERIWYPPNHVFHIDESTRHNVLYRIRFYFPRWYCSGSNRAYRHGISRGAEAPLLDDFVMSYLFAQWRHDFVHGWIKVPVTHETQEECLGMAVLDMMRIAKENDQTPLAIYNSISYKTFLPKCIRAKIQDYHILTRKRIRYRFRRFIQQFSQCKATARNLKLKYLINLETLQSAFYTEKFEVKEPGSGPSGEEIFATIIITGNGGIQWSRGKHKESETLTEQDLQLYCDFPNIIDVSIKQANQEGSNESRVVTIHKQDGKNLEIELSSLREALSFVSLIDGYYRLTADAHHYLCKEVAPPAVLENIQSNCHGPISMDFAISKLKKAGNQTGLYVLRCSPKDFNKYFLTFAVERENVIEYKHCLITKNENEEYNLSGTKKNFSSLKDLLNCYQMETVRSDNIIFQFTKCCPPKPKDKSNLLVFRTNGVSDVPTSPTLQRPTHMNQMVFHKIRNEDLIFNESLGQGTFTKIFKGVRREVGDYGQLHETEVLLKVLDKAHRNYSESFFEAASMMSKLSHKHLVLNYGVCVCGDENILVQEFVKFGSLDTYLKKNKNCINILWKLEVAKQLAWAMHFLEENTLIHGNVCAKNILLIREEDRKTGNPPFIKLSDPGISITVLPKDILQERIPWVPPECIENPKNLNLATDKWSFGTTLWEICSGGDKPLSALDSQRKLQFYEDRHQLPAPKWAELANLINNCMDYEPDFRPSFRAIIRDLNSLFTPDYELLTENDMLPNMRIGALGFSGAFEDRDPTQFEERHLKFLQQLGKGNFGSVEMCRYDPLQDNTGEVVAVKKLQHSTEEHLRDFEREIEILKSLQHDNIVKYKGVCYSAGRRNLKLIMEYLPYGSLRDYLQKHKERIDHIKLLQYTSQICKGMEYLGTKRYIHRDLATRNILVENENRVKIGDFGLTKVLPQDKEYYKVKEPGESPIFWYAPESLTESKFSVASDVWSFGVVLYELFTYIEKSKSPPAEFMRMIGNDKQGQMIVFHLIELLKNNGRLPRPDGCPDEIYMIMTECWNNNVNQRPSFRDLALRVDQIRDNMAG", "assay": "Kinase profiling assay (Reaction Biology), 10-dose IC50, 10 μM ATP", "assay_type": "biochemical", "details": "NA = no activity", "experimental": "310 and refinement were performed with COOT [14] and Phenix.Refine to obtain a clear electron\n311 density map (1Fo-Fc) for compound MA9-060, which was built into the structure near the end of\n312 iterative cycles of model building and refinement. Crystal parameters, data collection statistics and\n313 refinement statistics are summarized in Supplementary Fig. 4D and deposited in the protein\n314 databank with PDB code 8V1M.\n317 The compounds under investigation were tested by Reaction Biology Corporation against four\n318 specific kinases in this study (JAK2, ULK1, ULK2, ULK3). Each compound was provided as a\n319 10 mM stock solution. To facilitate dissolution, the compounds were subjected to gentle heating.\n320 Subsequent testing involved the evaluation of the compounds using a 10-dose IC50 mode,\nAdditionally, the control compound,\nThroughout these experiments, reactions were conducted using a standardized concentration\n325 The data collected during these assays encompass raw data, % enzyme activity (relative to DMSO\n327 activities at the highest concentration of compounds were less than 65%. The IC50 summary,\n328 detailing the inhibitory concentrations of the compounds against the respective kinases, is\n331 Bromodomain profiling assay\n333 evaluated against Bromodomain 1 by Reaction Biology Corporation.\n334 The compounds were subjected to testing using a 10-dose IC50 singlet approach, involving a 3-\n335 fold serial dilution starting at 10 μM, specifically against BRD4-1. Additionally, as a benchmark,\n337 dilution starting at 10 μM.\n338 For ligand and detection purposes, the H4/4Ac ligand, representing the Histone H4 peptide (1-21)\n339 with acetylation at lysine residues K5, K8, K12, and K16, and tagged with Biotin, was utilized."}, "BRD4-1": {"biological_target": "T2, BRD4-1 (Homo sapiens, UniProt O60885)", "T2 construct": "evaluated against Bromodomain 1 by Reaction Biology Corporation; purchased Reaction Biology Corporation", "assay": "Bromodomain profiling assay, AlphaScreen binding, H4/4Ac ligand", "details": "NA = no activity", "method": "340 Detection was carried out through the AlphaScreen Binding assay with excitation/emission\n341 wavelengths set at 680/520-620 nm, respectively, using the Enspire platform.\n342 The data acquisition included raw data, represented as signal-background*, % Binding (relative to\n343 DMSO controls), and curve fits."}, "primary CD138+ MM cells": {"system": "primary CD138+ MM cells", "assay": "EMMA ex vivo platform, live cell imaging, 96 hours, collagen matrix with bone marrow stroma and patient plasma", "assay_type": "cell-based", "design": "scale not given here", "from_the_text": "For clinical robustness, we tested the activity of MA9 in MM patient samples using our ex vivo mathematical myeloma advisor (EMMA) platform (Supplementary Table 1). […]\nFor these assays, we used a novel EMMA platform developed at Moffitt. Further details are included in the supplemental Materials. […]\n400 Ex vivo drug sensitivity characterization\n401 An ex vivo assay was used to quantify the chemosensitivity of primary MM cells. Fresh BM\n402 aspirate cells were enriched for CD138+ expression using Miltenyi (Bergisch Gladbach, Germany)\nMM cells (CD138+) were seeded in Corning\n404 Cell BIND 384 well plates (Corning, NY) with collagen I and previously established human-\n407 inactivated), penicillin/streptomycin, and patient-derived plasma (10%, freshly obtained from\n409 added using a robotic plate handler so that every drug/combination was tested at 5 (fixed\n410 concentration ratio, for combinations) concentrations (1:3 serial dilution) in two replicates.\n411 Negative controls (supplemented growth media with and without the vehicle control dimethyl\n412 sulfoxide [DMSO]) were included, as well as positive controls for each drug (cell line MM1.S at\n413 highest drug concentration). Plates were placed in a motorized stage microscope (EVOS Auto FL,\n414 Life Technologies, Carlsbad, CA) equipped with an incubator and maintained at 5% CO2 and 37\n415 °C. […]\nDigital image analysis computes the percent\n418 viability of MM cells for each time point and experimental condition (drug and concentration)"}, "[1]": {"system": "autophagy proteins in U266 MM cells", "assay": "Immunoblot densitometry of autophagy proteins", "assay_type": "cell-based, Human", "details": "U266, 6h, MA9-060 1μM, JQ1 10μM, CQ 1μM", "experimental": "Figure 3. Anti-myeloma activity of the MA9–060 autophagy inhibitor. A. Chemical structure of the autophagy inhibitor MA9–060. […] Chloroquine (CQ) (1μM) served as a positive control for autophagy inhibition. C. […] Hoechst 33342 dye appears here as the nuclear blue staining (Multiple comparisons ANOVA, p <0.0001).\n157 5872S). Protein concentration was quantified by Thermo Scientific™ Pierce™ BCA™ Protein\n30 μg protein was loaded to 10%-15% gel and ran at\n159 100V for 2 hours. Later protein was transferred to PVDF membrane and blocked with 5% skimmed\n160 milk in TBST (10 mM Tris/HCl pH8.0, 0.12M NaCl, 0.1% Tween 20) containing 5% BSA [8] for\n163 at 4°C overnight. Membranes were washed 3 times,10 minutes with TBS. Then incubated with\n164 appropriate secondary antibodies at 1:1000 ratio in skimmed milk or 2% BSA. The membranes\n165 were washed again 3 times for 10 minutes with TBST. ECL reagents were added to the membrane\n166 and blot was developed by LICOR Imaging Studio.\n167 All immunoblotting assays were performed at least in three replicates and representative\n168 images are shown. Commercially available antibodies and their dilutions are listed in\n169 Supplementary Table 5. Immunoblotting images were acquired and quantified using LICOR\n170 Image Studio Quant software. […]"}}, "note": "Several values for one entry are separate records, joined by “and”; a condition that tells them apart may be missing. Identical values can stand only once."}
{"compound": "Cc1cnc(Nc2ccc(C3CCN(C)CC3)c(F)c2)nc1Nc1ccc(Cl)c(NS(=O)(=O)C(C)(C)C)c1", "note": "[MA9060]", "values": [{"measurement": "IC50", "setting": "JAK2", "result": 6.7, "unit": "nM"}, {"measurement": "IC50", "setting": "BRD4-1", "result": 3.8, "unit": "nM"}, {"measurement": "AUC", "setting": "primary CD138+ MM cells; Pt648, LRMM", "result": 42.835}, {"measurement": "AUC", "setting": "primary CD138+ MM cells; Pt653, LRMM", "result": 41.560}, {"measurement": "AUC", "setting": "primary CD138+ MM cells; Pt655, LRMM, listed as MA9", "result": 26.03}, {"measurement": "AUC", "setting": "primary CD138+ MM cells; Pt663, LRMM, listed as MA9", "result": 47.02}, {"measurement": "AUC", "setting": "primary CD138+ MM cells; Pt665, LRMM, listed as MA9", "result": 70.14}, {"measurement": "AUC", "setting": "primary CD138+ MM cells; Pt666, LRMM, listed as MA9", "result": 49.23}, {"measurement": "AUC", "setting": "primary CD138+ MM cells; Pt669, ERMM, listed as MA9", "result": 29.51}, {"measurement": "AUC", "setting": "primary CD138+ MM cells; Pt672, NDMM, listed as MA9", "result": 49.16}, {"measurement": "AUC", "setting": "primary CD138+ MM cells; Pt677, NDMM", "result": "43.301 and 45.593"}, {"measurement": "AUC", "setting": "primary CD138+ MM cells; Pt680, ERMM", "result": 42.605}, {"measurement": "AUC", "setting": "primary CD138+ MM cells; Pt680, ERMM, listed as MA9", "result": 35.24}, {"measurement": "AUC", "setting": "primary CD138+ MM cells; Pt685, ERMM, listed as MA9", "result": 100}, {"measurement": "AUC", "setting": "primary CD138+ MM cells; Pt689, NDMM", "result": 97.182}, {"measurement": "AUC", "setting": "primary CD138+ MM cells; Pt691, LRMM, listed as MA9", "result": 68.66}, {"measurement": "AUC", "setting": "primary CD138+ MM cells; Pt693, SMOL, listed as MA9", "result": 70.97}, {"measurement": "AUC", "setting": "primary CD138+ MM cells; Pt694, NDMM, listed as MA9", "result": 47.51}, {"measurement": "AUC", "setting": "primary CD138+ MM cells; Pt695, LRMM, listed as MA9", "result": 70.64}, {"measurement": "AUC", "setting": "primary CD138+ MM cells; Pt697, NDMM, listed as MA9", "result": 65.92}, {"measurement": "AUC", "setting": "primary CD138+ MM cells; Pt700, NDMM", "result": 71.574}, {"measurement": "AUC", "setting": "primary CD138+ MM cells; Pt700, NDMM, listed as MA9", "result": 71.39}, {"measurement": "AUC", "setting": "primary CD138+ MM cells; Pt707, LRMM, listed as MA9", "result": 73.56}, {"measurement": "AUC", "setting": "primary CD138+ MM cells; Pt718, SMOL, listed as MA9", "result": 76.17}, {"measurement": "AUC", "setting": "primary CD138+ MM cells; Pt737, MGUS", "result": 42.854}, {"measurement": "AUC", "setting": "primary CD138+ MM cells; Pt738, NDMM, listed as MA9", "result": 65.97}, {"measurement": "AUC", "setting": "primary CD138+ MM cells; Pt740, SMOL", "result": 62.223}, {"measurement": "AUC", "setting": "primary CD138+ MM cells; Pt745, NDMM", "result": 55.970}, {"measurement": "AUC", "setting": "primary CD138+ MM cells; Pt825, NDMM", "result": 100}, {"measurement": "AUC", "setting": "primary CD138+ MM cells; Pt852, NDMM", "result": 41.956}, {"measurement": "AUC", "setting": "primary CD138+ MM cells; Pt853, ERMM", "result": "49.879 and 54.514"}, {"measurement": "AUC", "setting": "primary CD138+ MM cells; Pt856, NDMM, listed as MA9", "result": 72.33}, {"measurement": "AUC", "setting": "primary CD138+ MM cells; Pt865, LRMM, listed as MA9", "result": 59.28}, {"measurement": "AUC", "setting": "primary CD138+ MM cells; Pt866, NDMM, listed as MA9", "result": 37.56}, {"measurement": "AUC", "setting": "primary CD138+ MM cells; Pt875, NDMM, listed as MA9", "result": 21.1}, {"measurement": "AUC", "setting": "primary CD138+ MM cells; Pt885, NDMM", "result": 28.777}, {"measurement": "AUC", "setting": "primary CD138+ MM cells; Pt885, NDMM, listed as MA9", "result": 27.78}, {"measurement": "AUC", "setting": "primary CD138+ MM cells; Pt888, LRMM, listed as MA9", "result": 59.98}, {"measurement": "AUC", "setting": "primary CD138+ MM cells; Pt893, LRMM", "result": 96.916}, {"measurement": "AUC", "setting": "primary CD138+ MM cells; Pt899, SMOL", "result": 28.290}, {"measurement": "AUC", "setting": "primary CD138+ MM cells; Pt906, NDMM, listed as MA9", "result": 43.69}, {"measurement": "AUC", "setting": "primary CD138+ MM cells; Pt909, LRMM", "result": 46.043}, {"measurement": "AUC", "setting": "primary CD138+ MM cells; Pt912, PCL", "result": 41.302}, {"measurement": "AUC", "setting": "primary CD138+ MM cells; Pt917, LRMM", "result": 73.927}, {"measurement": "AUC", "setting": "primary CD138+ MM cells; Pt920, LRMM", "result": 44.399}, {"measurement": "AUC", "setting": "primary CD138+ MM cells; Pt923, LRMM, listed as MA9", "result": 28.34}, {"measurement": "AUC", "setting": "primary CD138+ MM cells; Pt932, LRMM", "result": 45.003}, {"measurement": "AUC", "setting": "primary CD138+ MM cells; Pt933, LRMM, listed as MA9", "result": 57.89}, {"measurement": "AUC", "setting": "primary CD138+ MM cells; Pt935, NDMM, listed as MA9", "result": 25.47}, {"measurement": "AUC", "setting": "primary CD138+ MM cells; Pt936, LRMM", "result": 83.700}, {"measurement": "AUC", "setting": "primary CD138+ MM cells; Pt937, NDMM", "result": "48.139 and 40.693"}, {"measurement": "AUC", "setting": "primary CD138+ MM cells; Pt940, LRMM", "result": 72.923}, {"measurement": "AUC", "setting": "primary CD138+ MM cells; Pt945, LRMM", "result": 39.091}, {"measurement": "AUC", "setting": "primary CD138+ MM cells; Pt948, LRMM, listed as MA9", "result": 24.69}, {"measurement": "AUC", "setting": "primary CD138+ MM cells; Pt951, ERMM, listed as MA9", "result": 62.38}, {"measurement": "AUC", "setting": "primary CD138+ MM cells; Pt956, NDMM", "result": "67.208 and 74.021"}, {"measurement": "AUC", "setting": "primary CD138+ MM cells; Pt957, LRMM", "result": 80.043}, {"measurement": "AUC", "setting": "primary CD138+ MM cells; Pt961, NDMM", "result": "66.118 and 49.072"}, {"measurement": "LC3II densitometry", "setting": "[1]; CTRL 0.34", "result": 0.10}, {"measurement": "LC3I densitometry", "setting": "[1]; CTRL 3.01", "result": 1.78}, {"measurement": "ULK1 densitometry", "setting": "[1]; CTRL 7.21", "result": 2.44}, {"measurement": "ULK3 densitometry", "setting": "[1]; CTRL 15.17", "result": 3.33}]}
